Test results taken from US20250108036A1, “COMPOSITIONS FOR REMOVING SENESCENT CELLS AND USES THEREOF” (LIFECEUTIX CO., LTD., priority 2021, published 2025).

Assays:
Type in all cases: cell-based, human
HMGN1 [1] = test: HMGN1 ELISA in culture medium of A549 cancer cells (Example 12, Table 66); details: Homo sapiens, A549, doxorubicin-induced senescent A549 cells, ELISA, DMSO = 100, read-out: HMGN1 (amount of HMGN1 secreted in the cell culture); for activity at 30 µM: test compound 30 μM; for activity at 90 µM: test compound 90 μM
A549 = test: CellTiter-Glo cell viability of senescent A549 cancer cells (Example 12, Table 67); details: Homo sapiens, A549, doxorubicin-induced senescent A549 cancer cells, CellTiter-Glo, read-out: Survival (%); for viability at 1.1 µM: 1.1 μM test compound; for viability at 10 µM: 10 μM test compound; for viability at 30 µM: 30 μM test compound; for viability at 90 µM: 90 μM test compound
[2] = system: foreskin cells in which senescence was induced by doxorubicin; test: CellTiter-Glo cell viability of doxorubicin-induced senescent foreskin cells (Examples 1-2, 10, 11, 13; Tables 4, 63, 65); details: Homo sapiens, 72 h, doxorubicin-induced senescent foreskin cells, CellTiter-Glo, 0 μM = 100, read-out: Survival (%); for viability at 1.1 µM: 1.1 μM test compound; for viability at […]: […] test compound; for viability at 10 µM: 10 μM test compound; for viability at 30 µM: 30 μM test compound
Experimental: After 3 days, cell viability was measured using CellTiter-Glo Luminescent Cell Viability Assay (Promega) or light microscopy.

HMGN1 [3] = test: HMGN1 ELISA in culture medium of foreskin cells (Examples 10, 11; Tables 62, 63, 64); details: Homo sapiens, doxorubicin-treated foreskin cells, DMSO = 100; for activity at 30 µM: 30 μM test compound, read-out: HMGN1

| SMILES | activity at 30 µM (HMGN1 [1]) | viability at 1.1 µM (A549) | viability at 10 µM (A549) | viability at 1.1 µM [2] | viability at […] [2] | activity at 30 µM (HMGN1 [3]) | activity at 90 µM (HMGN1 [1]) | viability at 30 µM (A549) | viability at 90 µM (A549) | viability at 10 µM [2] | viability at 30 µM [2] | activity at 270 µM (HMGN1 [1]; test compound 270 μM) | viability at 270 µM (A549; 270 μM test compound) | viability at 90 µM ([2]; 90 μM test compound) | viability at 270 µM ([2]; 270 μM test compound) | activity at 270 µM (HMGN1 [3]; 270 μM test compound) |
| --- | --- | --- | --- | --- | --- | --- | --- | --- | --- | --- | --- | --- | --- | --- | --- | --- |
| C[C@H]1C(=O)C(C#N)=C[C@@]2(C)c3c(c(-c4ccccc4)nn3-c3ccc(-c4cccc(CO)c4)cc3)CC[C@H]12 [LX-2505] | 308% | 100% | 18.6% | 78.6% | 36.9% | 248% | – | – | – | – | – | – | – | – | – | – |
| CCn1c2ccccc2c2cc(NC(=O)COC(=O)C3CCC(=O)N3)ccc21 (centres unmarked) [LX-902] | – | 94.6% | 88.2% | 97.9% | 91.6% | 268% | 234% | 62.7% | 25.8% | 72.8% | 23.9% | – | – | – | – | – |
| C=C(CN(C)C)C(=O)c1ccc(C)cc1C [LX-923] | – | 96.7% | 89.4% | 97.7% | 94.5% | 271% | 219% | 81.7% | 15.7% | 75.7% | 19.5% | – | – | – | – | – |
| O=C1C(O)=C([C@H]2CC[C@H](c3ccc(Cl)cc3)CC2)C(=O)c2ccccc21 [LX-2802, Atovaquone, reference compound] | 279% | 101% | 74.1% | 102% | 81.2% | 268% | – | 35.7% | – | 58.4% | 17.2% | – | – | – | – | – |
| C=CC(=O)N1CCC([C@@H]2CCNc3c(C(N)=O)c(-c4ccc(Oc5ccccc5)cc4)nn32)CC1 [LX-3309, Zanubrutinib, reference compound] | 247% | 104% | 49.6% | 99.3% | 87.1% | 293% | – | 35.2% | – | 36.9% | – | – | – | – | – | – |
| COC(=O)C[C@]12CCC(C)(C)C[C@H]1[C@H]1C(=O)C=C3[C@@]4(C)C=C(C#N)C(=O)C(C)(C)[C@@H]4CC[C@@]3(C)[C@]1(C)CC2 [LX-2307] | 279% | 4.8% | – | 15.4% | – | 271% | – | – | – | – | – | – | – | – | – | – |
| CCCCS(=N)(=O)CCC(N)C(=O)O (centres unmarked) [LX-2805, Buthionine sulfoximine] | – | 105% | 96.7% | 99.4% | 97.3% | – | – | 82.9% | 73.3% | 92% | 84.2% | 158% | 49.3% | 82% | 51.1% | 182% |
| O=C(O)Cn1nnc(-c2cc(N3CCC(Oc4cc(F)ccc4Br)CC3)no2)n1 [LX-309] | 254% | 100% | 92.3% | 52.3% | 12.5% | 283% | – | 28.1% | – | 4.3% | – | – | – | – | – | – |
| C=CC(=O)NC[C@]12CCC(C)(C)C[C@H]1[C@H]1C(=O)C=C3[C@@]4(C)C=C(C#N)C(=O)C(C)(C)[C@@H]4CC[C@@]3(C)[C@]1(C)CC2 [LX-2509] | 305% | 106% | 21.8% | 81.1% | 13.5% | 301% | – | – | – | – | – | – | – | – | – | – |
| C=C1C(=O)O[C@H]2C1CC/C(COC(=O)/C=C/c1c(OC)cccc1OC)=C\CCC1(C)O[C@H]21 (some centres unmarked) [LX-601] | 318% | 13.8% | – | 6.1% | 3.3% | 293% | – | – | – | – | – | – | – | – | – | – |
| COC(=O)N[C@]12CCC(C)(C)C[C@H]1[C@H]1C(=O)C=C3[C@@]4(C)C=C(C#N)C(=O)C(C)(C)[C@@H]4CC[C@@]3(C)[C@]1(C)CC2 [LX-2305] | 269% | 33.6% | – | 19.6% | – | 292% | – | – | – | – | – | – | – | – | – | – |
| CCNC(=O)CC[C@]12CCC(C)(C)C[C@H]1[C@H]1C(=O)C=C3[C@@]4(C)C=C(C#N)C(=O)C(C)(C)[C@@H]4CC[C@@]3(C)[C@]1(C)CC2 [LX-2402] | 286% | 99.5% | 5.4% | 45.2% | 5.1% | 287% | – | – | – | – | – | – | – | – | – | – |
